Source: patent US12637471B2, “Heterocyclic compounds, compositions, methods of preparation and uses thereof” (Organon R&D Finland Ltd, priority 2021, dated 2026)

How the values were obtained:
Format in all cases: biochemical
[1] = molecular target: T1, Recombinant human aldo-keto reductase family 1 member C2 (AKR1C2) protein (Homo sapiens, UniProt P52895); test: Inhibition of the aldo-keto reductase family 1 member C2, 3H-dihydrotestosterone conversion; conditions: inhibitor at 10 μM
T1 construct: made in house; host or cells: Sf-9 insect cells (baculovirus)
T1 sequence (P52895 1-323): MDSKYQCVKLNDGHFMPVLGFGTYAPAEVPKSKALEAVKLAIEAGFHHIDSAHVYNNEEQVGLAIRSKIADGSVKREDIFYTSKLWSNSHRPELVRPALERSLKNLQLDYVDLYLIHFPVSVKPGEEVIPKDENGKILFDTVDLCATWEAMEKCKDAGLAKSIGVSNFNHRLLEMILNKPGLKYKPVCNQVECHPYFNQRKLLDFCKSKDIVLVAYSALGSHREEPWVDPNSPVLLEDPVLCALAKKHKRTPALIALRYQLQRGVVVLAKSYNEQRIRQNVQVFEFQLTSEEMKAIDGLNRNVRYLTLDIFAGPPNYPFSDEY
Protocol: Inhibition of the Aldo-Keto Reductase Family 1 Member C2
Recombinant human aldo-keto reductase family 1 member C2 (AKR1C2) protein (GenBank Accession No. NM_001354.6) produced in Sf-9 insect cells with baculovirus was used for screening. Recombinant protein (13.6 nM/0.5 μg/ml) was incubated in 20 mM KH2PO4 pH 7.4, 1 mM EDTA, complete protease inhibitor tablet, 1 mM NADPH with 6.25 nM ^3H-labelled dihydrotestosterone for 45 min at +37° C., in the presence of the potential inhibitor at 10 μM concentration. Inhibitor stock solutions were prepared in DMSO. Final concentration of DMSO was adjusted to 1% in all samples. The enzyme reaction was stopped by addition of 10% trichloroacetic acid (final concentration 1%). Samples were filtrated through […] filtration plate (Merck). Analyses of samples was done with Waters Acquity UPLC H-class equipped with XBridge C18 column and XBridge VanGuard C18 guard column. Acetonitrile: 0.1% formic acid in water (42/58 v/v) with flow of 1.2 ml/min was used for mobile phase. The eluent was mixed with scintillant and the radioactivity was monitored in the eluate by a Scintillation Analyser. The conversion percentage of triated substrate (dihydrotestosterone) to tritiated product (5α-androstane-3α,17β-diol) for each sample was determined by the relative percentages of substrate and product in the chromatogram. The inhibition percentages of samples were calculated using following formula: […]

[2] = molecular target: T2, 17β-Hydroxysteroid Dehydrogenase Type 2 Enzyme (17β-HSD2) (Homo sapiens, UniProt P37059); test: Inhibition of the 17β-hydroxysteroid dehydrogenase type 2 enzyme, 3H-testosterone conversion; conditions: inhibitor at 10 μM
T2 construct: made in house; host or cells: Sf-9 insect cells (baculovirus)
T2 sequence (P37059 1-387): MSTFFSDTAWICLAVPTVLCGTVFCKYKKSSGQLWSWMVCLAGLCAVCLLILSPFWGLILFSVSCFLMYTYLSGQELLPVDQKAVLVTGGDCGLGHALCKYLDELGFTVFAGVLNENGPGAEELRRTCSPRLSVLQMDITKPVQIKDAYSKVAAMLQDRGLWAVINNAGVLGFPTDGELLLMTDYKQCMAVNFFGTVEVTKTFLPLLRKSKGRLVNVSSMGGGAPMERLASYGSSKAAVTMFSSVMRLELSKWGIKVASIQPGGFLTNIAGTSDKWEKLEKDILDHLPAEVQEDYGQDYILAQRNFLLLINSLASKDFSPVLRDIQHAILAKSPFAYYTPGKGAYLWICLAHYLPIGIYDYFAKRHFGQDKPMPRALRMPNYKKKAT
Protocol: Inhibition of the 17β-Hydroxysteroid Dehydrogenase Type 2 Enzyme
Recombinant human 173-HSD2 protein (GenBank Accession No. NM_002153.3) produced in Sf-9 insect cells with baculovirus was used for screening.
Recombinant protein (105 nM/4.5 μg/ml) was incubated in 20 mM KH2PO4 pH 8.5, 1 mM EDTA, complete protease inhibitor cocktail, 1 mM NAD with 56.25 nM testosterone (including ^3H-labelled testosterone) for 30 min at RT, in the presence of the potential inhibitor at 10 μM concentration. Inhibitor stock solutions were prepared in DMSO. Final concentration of DMSO was adjusted to 1% in all samples. The enzyme reaction was stopped by addition of 10% trichloroacetic acid (final concentration 1%). Samples were filtrated through […] filtration plate. Analyses of samples was done with Waters Acquity UPLC H-class equipped with XBridge C18 column and XBridge VanGuard C18 guard column. Acetonitrile: 0.1% formic acid in water (42/58 v/v) with flow of 1.2 ml/min was used for mobile phase. The eluent was mixed with scintillant and the radioactivity was monitored in the eluate by a Scintillation Analyser. The conversion percentage of tritiated substrate (testosterone) to product tritiated (androstenedione) for each sample was determined by the relative percentages of substrate and product in the chromatogram. The inhibition percentages of samples were calculated using following formula: […]

[3] = molecular target: T3, Recombinant human AKR1C3 (17β-HSD5) protein (Homo sapiens, UniProt P42330); test: Inhibition of AKR1C3 (17β-hydroxysteroid dehydrogenase type 5) enzyme, fluorescence assay; conditions: inhibitor at 500 nM
T3 construct: made in house; host or cells: E. coli
T3 sequence (P42330 1-323): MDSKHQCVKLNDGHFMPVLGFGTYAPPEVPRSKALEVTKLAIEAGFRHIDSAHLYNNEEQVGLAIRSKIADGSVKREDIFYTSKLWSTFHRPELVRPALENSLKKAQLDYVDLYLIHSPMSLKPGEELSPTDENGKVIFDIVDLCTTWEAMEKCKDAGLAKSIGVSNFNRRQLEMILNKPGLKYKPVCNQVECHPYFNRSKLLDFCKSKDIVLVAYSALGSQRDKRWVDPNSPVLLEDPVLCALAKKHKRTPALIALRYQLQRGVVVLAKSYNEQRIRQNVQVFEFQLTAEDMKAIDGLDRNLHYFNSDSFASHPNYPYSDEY
Protocol: Inhibition of AKR1C3 (17β-Hydroxysteroid Dehydrogenase Type 5) Enzyme
Recombinant human AKR1C3 (17β-HSD5) protein (GenBank Accession No. NM_003739.6) produced in E. coli was used for screening. Recombinant protein (27 nM/1 μg/ml) was incubated in 20 mM KH2PO4, 1 mM EDTA, complete protease inhibitor cocktail, pH 7.4 with 1 μM 9-acetyl-2,3,6,7-tetrahydro-1H,5H,11H-pyrano[2,3-f]pyrido[3,2,1-ij]quinolin-11-one and 1 mM NADPH for 60 to 120 min at RT, in the presence of the potential inhibitor at 500 nM concentration. Inhibitor stock solutions were prepared in DMSO. Final concentration of DMSO was adjusted to 1% in all samples. The samples were analysed by fluorescent measurement with Tecan Spark microplate reader at wavelengths 420 nm for excitation and 510 nm for emission. Samples were evaluated against standards of 9-(1-hydroxyethyl)-2,3,6,7-tetrahydro-1H,5H,11H-pyrano[2,3-f]pyrido[3,2,1-ij]quinolin-11-one at concentrations 1 μM-10 nM. Background fluorescence was reduced from all the samples and standards. The concentrations of formed product were calculated from the standard curve with Tecan Spark Magellan software. The formed product concentrations were used to calculate conversion percentages. The inhibition percentages for the samples were calculated from the conversion percentages.
Inhibition percentages of samples were calculated using following formula: […]

Structure (SMILES): N#CC(=C1CCN(C(=O)N2CCC(O)CC2)CC1)c1ccc(Cl)cc1 [Compound 18, 2-(4-chlorophenyl)-2-(1-(4-hydroxypiperidine-1-carbonyl)piperidin-4-ylidene)acetonitrile]
- inhibition at 10 µM [1]: 7%
- inhibition at 10 µM [2]: 11%
- inhibition at 0.5 µM [3]: 99%

Structure (SMILES): N#CC(=C1CCN(C(=O)N2CCC(CO)CC2)CC1)c1ccc(F)cc1 [Compound 19, 2-(4-fluorophenyl)-2-(1-(4-(hydroxymethyl)piperidine-1-carbonyl)piperidin-4-ylidene)acetonitrile]
- inhibition at 10 µM [1]: 12%
- inhibition at 10 µM [2]: 19%
- inhibition at 0.5 µM [3]: 99%

Structure (SMILES): CCOC1CCN(C(=O)N2CCC(=C(C#N)c3ccc(F)cc3)CC2)CC1 [Compound 20, 2-(1-(4-ethoxypiperidine-1-carbonyl)piperidin-4-ylidene)-2-(4-fluorophenyl)acetonitrile]
- inhibition at 10 µM [1]: 2%
- inhibition at 10 µM [2]: 9%
- inhibition at 0.5 µM [3]: 97%

Structure (SMILES): CC(O)C1CCN(C(=O)N2CCC(=C(C#N)c3ccc(F)cc3)CC2)CC1 (stereo not drawn) [Compound 21, 2-(4-fluorophenyl)-2-(1-(4-(1-hydroxyethyl)piperidine-1-carbonyl)piperidin-4-ylidene)acetonitrile]
- inhibition at 10 µM [1]: 9%
- inhibition at 10 µM [2]: 20%
- inhibition at 0.5 µM [3]: 95%

Structure (SMILES): COC1CN(C(=O)N2CCC(=C(C#N)c3ccc(F)cc3)CC2)C1 [Compound 22, 2-(4-fluorophenyl)-2-(1-(3-methoxyazetidine-1-carbonyl)piperidin-4-ylidene)acetonitrile]
- inhibition at 10 µM [1]: 9%
- inhibition at 10 µM [2]: 7%
- inhibition at 0.5 µM [3]: 88%

Structure (SMILES): N#CC(=C1CCN(C(=O)N2CC(C#N)C2)CC1)c1ccc(F)cc1 [Compound 23, 1-(4-(cyano(4-fluorophenyl)methylene)piperidine-1-carbonyl)azetidine-3-carbonitrile]
- inhibition at 10 µM [1]: 13%
- inhibition at 10 µM [2]: 1%
- inhibition at 0.5 µM [3]: 96%

Structure (SMILES): N#CC(=C1CCN(C(=O)N2CCc3[nH]cnc3C2)CC1)c1ccc(F)cc1 [Compound 24, 2-(4-fluorophenyl)-2-(1-(4,5,6,7-tetrahydro-1H-imidazo[4,5-c]pyridine-5-carbonyl)piperidin-4-ylidene)acetonitrile]
- inhibition at 10 µM [1]: 8%
- inhibition at 10 µM [2]: 11%
- inhibition at 0.5 µM [3]: 96%

Structure (SMILES): N#CC(=C1CCN(C(=O)N2CCc3[nH]ncc3C2)CC1)c1ccc(F)cc1 [Compound 25, 2-(4-fluorophenyl)-2-(1-(4,5,6,7-tetrahydro-1H-pyrazolo[4,3-c]pyridine-5-carbonyl)piperidin-4-ylidene)acetonitrile]
- inhibition at 10 µM [1]: 28%
- inhibition at 10 µM [2]: 27%
- inhibition at 0.5 µM [3]: 98%

Structure (SMILES): N#CC(=C1CCN(C(=O)N2CCn3ncnc3C2)CC1)c1ccc(F)cc1 [Compound 26, 2-(4-fluorophenyl)-2-(1-(5,6,7,8-tetrahydro-[1,2,4]triazolo[1,5-a]pyrazine-7-carbonyl)piperidin-4-ylidene)acetonitrile]
- inhibition at 10 µM [1]: 6%
- inhibition at 10 µM [2]: 13%
- inhibition at 0.5 µM [3]: 97%

Structure (SMILES): N#CC(=C1CCN(C(=O)N2CCn3cncc3C2)CC1)c1ccc(F)cc1 [Compound 27, 2-(4-fluorophenyl)-2-(1-(5,6,7,8-tetrahydroimidazo[1,5-a]pyrazine-7-carbonyl)piperidin-4-ylidene)acetonitrile]
- inhibition at 10 µM [1]: 16%
- inhibition at 10 µM [2]: 7%
- inhibition at 0.5 µM [3]: 98%

Structure (SMILES): N#CC(=C1CCN(C(=O)N2CCn3cccc3C2)CC1)c1ccc(F)cc1 [Compound 28, 2-(4-fluorophenyl)-2-(1-(1,2,3,4-tetrahydropyrrolo[1,2-a]pyrazine-2-carbonyl)piperidin-4-ylidene)acetonitrile]
- inhibition at 10 µM [1]: 8%
- inhibition at 10 µM [2]: 27%
- inhibition at 0.5 µM [3]: 97%

Structure (SMILES): N#CC(=C1CCN(C(=O)N2C[C@@H]3CC[C@@H]2C3)CC1)c1ccc(F)cc1 [Compound 29, 2-(1-((1R,4R)-2-azabicyclo[2.2.1]heptane-2-carbonyl)piperidin-4-ylidene)-2-(4-fluorophenyl)acetonitrile]
- inhibition at 10 µM [1]: 5%
- inhibition at 10 µM [2]: 30%
- inhibition at 0.5 µM [3]: 96%

Structure (SMILES): N#CC(=C1CCN(C(=O)N2CCc3cccnc32)CC1)c1ccc(F)cc1 [Compound 30, 2-(1-(2,3-dihydro-1H-pyrrolo[2,3-b]pyridine-1-carbonyl)piperidin-4-ylidene)-2-(4-fluorophenyl)acetonitrile]
- inhibition at 10 µM [1]: 15%
- inhibition at 10 µM [2]: 14%
- inhibition at 0.5 µM [3]: 95%

Structure (SMILES): N#CC(=C1CCN(C(=O)N2C3CCC2COC3)CC1)c1ccc(F)c(F)c1 [Compound 31, 2-(1-(3-oxa-8-azabicyclo[3.2.1]octane-8-carbonyl)piperidin-4-ylidene)-2-(3,4-difluorophenyl)acetonitrile]
- inhibition at 10 µM [1]: 11%
- inhibition at 10 µM [2]: 9%
- inhibition at 0.5 µM [3]: 95%

Structure (SMILES): N#CC(=C1CCN(C(=O)N2CCc3nocc3C2)CC1)c1ccc(F)c(F)c1 [Compound 32, 2-(3,4-difluorophenyl)-2-(1-(4,5,6,7-tetrahydroisoxazolo[4,3-c]pyridine-5-carbonyl)piperidin-4-ylidene)acetonitrile]
- inhibition at 10 µM [1]: 17%
- inhibition at 10 µM [2]: 4%
- inhibition at 0.5 µM [3]: 97%

Structure (SMILES): N#CC(=C1CCN(C(=O)N2CCC(CO)CC2)CC1)c1ccc(F)c(F)c1 [Compound 33, 2-(3,4-difluorophenyl)-2-(1-(4-(hydroxymethyl)piperidine-1-carbonyl)piperidin-4-ylidene)acetonitrile]
- inhibition at 10 µM [1]: 16%
- inhibition at 10 µM [2]: 7%
- inhibition at 0.5 µM [3]: 97%
